Consider 2 molecules from publication PMC4076210, “Discovery of Novel AKT Inhibitors with Enhanced Anti-Tumor Effects in Combination with the MEK Inhibitor” (PLoS ONE, 2014).

Common to all, as to test: Kinase panel
Holding throughout (assay type): biochemical

One experiment addresses T1, SAPK4(h) (Homo sapiens, UniProt O15264).
T1 construct: purchased Millipore KinaseProfiler
T1 sequence (O15264 1-365): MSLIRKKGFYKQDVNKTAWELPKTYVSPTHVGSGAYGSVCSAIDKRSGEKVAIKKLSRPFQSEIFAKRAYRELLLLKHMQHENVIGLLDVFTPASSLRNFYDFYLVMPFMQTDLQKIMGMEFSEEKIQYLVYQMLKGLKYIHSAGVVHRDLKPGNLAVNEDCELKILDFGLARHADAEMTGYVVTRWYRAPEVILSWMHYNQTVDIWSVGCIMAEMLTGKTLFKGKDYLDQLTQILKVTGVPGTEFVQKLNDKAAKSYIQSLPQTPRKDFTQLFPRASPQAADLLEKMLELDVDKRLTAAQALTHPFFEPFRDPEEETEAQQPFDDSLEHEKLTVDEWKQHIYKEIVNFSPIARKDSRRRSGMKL

A further experiment concerns the target T2, GRK7(h) (Homo sapiens, UniProt Q8WTQ7).
T2 construct: purchased Millipore KinaseProfiler
T2 sequence (Q8WTQ7 1-553): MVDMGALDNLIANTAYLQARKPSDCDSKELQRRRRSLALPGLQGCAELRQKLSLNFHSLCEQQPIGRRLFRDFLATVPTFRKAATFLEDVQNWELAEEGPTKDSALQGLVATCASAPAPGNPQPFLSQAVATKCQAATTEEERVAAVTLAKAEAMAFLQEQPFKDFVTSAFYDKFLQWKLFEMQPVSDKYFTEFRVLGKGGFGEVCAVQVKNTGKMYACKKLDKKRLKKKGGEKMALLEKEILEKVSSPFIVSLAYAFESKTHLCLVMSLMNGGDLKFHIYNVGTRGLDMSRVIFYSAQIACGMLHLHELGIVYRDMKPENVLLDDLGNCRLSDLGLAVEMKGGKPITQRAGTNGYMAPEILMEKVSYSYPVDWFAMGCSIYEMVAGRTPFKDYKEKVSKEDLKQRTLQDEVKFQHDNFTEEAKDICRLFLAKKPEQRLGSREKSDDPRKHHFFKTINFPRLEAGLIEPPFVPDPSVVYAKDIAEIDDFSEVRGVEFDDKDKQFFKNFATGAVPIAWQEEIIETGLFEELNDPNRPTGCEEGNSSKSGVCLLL

The next experiment concerns the target T3, STK33(h) (Homo sapiens, UniProt Q9BYT3).
T3 construct: purchased Millipore KinaseProfiler

The next experiment has as its target T4, NEK11(h) (Homo sapiens, UniProt Q8NG66).
T4 construct: purchased Millipore KinaseProfiler
T4 sequence (Q8NG66 1-645): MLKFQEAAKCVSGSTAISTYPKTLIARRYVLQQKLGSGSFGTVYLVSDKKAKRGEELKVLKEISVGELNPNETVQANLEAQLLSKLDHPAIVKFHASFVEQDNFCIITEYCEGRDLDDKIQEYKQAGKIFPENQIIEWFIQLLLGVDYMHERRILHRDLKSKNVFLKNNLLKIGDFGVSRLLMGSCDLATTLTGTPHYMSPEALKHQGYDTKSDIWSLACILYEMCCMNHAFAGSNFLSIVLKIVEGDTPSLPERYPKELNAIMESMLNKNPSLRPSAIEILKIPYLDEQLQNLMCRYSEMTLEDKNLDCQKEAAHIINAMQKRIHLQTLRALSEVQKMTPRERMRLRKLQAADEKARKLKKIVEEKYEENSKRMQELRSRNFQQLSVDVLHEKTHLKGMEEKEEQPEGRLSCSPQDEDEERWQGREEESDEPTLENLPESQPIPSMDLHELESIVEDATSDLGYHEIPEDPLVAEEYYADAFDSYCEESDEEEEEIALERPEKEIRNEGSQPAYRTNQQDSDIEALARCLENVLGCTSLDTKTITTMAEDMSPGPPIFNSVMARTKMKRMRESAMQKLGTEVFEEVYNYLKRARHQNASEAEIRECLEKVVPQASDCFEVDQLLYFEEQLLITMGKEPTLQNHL

A further experiment deals with T5, MST1(h) (Homo sapiens, UniProt Q13043).
T5 construct: purchased Millipore KinaseProfiler
T5 sequence (Q13043 1-487): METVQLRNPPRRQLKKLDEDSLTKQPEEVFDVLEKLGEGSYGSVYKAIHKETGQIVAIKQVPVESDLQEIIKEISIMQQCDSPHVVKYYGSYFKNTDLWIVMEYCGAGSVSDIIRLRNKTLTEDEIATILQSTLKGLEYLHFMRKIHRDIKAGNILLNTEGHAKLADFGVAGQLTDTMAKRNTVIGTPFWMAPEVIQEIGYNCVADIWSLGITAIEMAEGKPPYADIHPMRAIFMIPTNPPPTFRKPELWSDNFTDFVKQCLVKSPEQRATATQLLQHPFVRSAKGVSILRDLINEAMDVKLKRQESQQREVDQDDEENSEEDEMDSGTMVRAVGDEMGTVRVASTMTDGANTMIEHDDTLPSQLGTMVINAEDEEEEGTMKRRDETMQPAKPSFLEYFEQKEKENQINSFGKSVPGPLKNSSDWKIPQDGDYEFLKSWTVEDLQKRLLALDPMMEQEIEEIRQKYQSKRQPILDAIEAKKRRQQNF

Read-outs that look alike come from different tables or passages of the source.

T3 sequence (Q9BYT3 whole entry): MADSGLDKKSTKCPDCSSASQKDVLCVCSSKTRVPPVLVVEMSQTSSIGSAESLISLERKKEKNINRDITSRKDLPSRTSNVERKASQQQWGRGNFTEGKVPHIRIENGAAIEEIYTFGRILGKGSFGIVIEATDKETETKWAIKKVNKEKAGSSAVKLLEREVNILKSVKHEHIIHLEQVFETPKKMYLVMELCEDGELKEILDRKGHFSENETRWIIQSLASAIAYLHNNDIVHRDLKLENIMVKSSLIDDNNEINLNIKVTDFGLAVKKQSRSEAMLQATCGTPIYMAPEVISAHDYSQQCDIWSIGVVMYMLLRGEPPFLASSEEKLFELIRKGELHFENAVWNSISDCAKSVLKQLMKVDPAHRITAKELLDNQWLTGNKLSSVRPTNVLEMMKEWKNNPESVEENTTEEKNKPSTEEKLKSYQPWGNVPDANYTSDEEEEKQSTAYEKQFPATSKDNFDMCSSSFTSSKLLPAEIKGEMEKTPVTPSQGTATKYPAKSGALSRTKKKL

In the case of `Cn1ncc(Cl)c1-c1cc(C(=O)N[C@H](CN)Cc2cccc(F)c2)sc1Cl` [GSK2110183], the inhibition at 0.5 µM at SAPK4(h) was 3%; against GRK7(h), 64%; at STK33(h), 56%; against NEK11(h), -13%; against MST1(h) it was -2%. The inhibition at 10 µM was 64% against SAPK4(h); 96% on GRK7(h); 94% against STK33(h); -11% against NEK11(h); 19% against MST1(h).

With `Cn1ncc(Cl)c1-c1cc(C(=O)N[C@H](CN)Cc2ccc(F)c(F)c2)oc1Cl` [GSK2141795], the inhibition at 0.5 µM is -9% on SAPK4(h) (0.5 µM, read-out: % Inhibition); 42% on GRK7(h) (0.5 µM, read-out: % Inhibition); 82% on STK33(h) (0.5 µM, read-out: % Inhibition); -11% at NEK11(h) (0.5 µM, read-out: % Inhibition); -10% on MST1(h) (0.5 µM, read-out: % Inhibition). The inhibition at 10 µM is 54% at SAPK4(h) (10 µM, read-out: % Inhibition); 76% at GRK7(h) (10 µM, read-out: % Inhibition); 77% on STK33(h) (10 µM, read-out: % Inhibition); -2% at NEK11(h) (10 µM, read-out: % Inhibition); 25% on MST1(h) (10 µM, read-out: % Inhibition).

One may read the inhibition as the relative decrease from the control value, in per cent.
